Test results as given in patent US20220296637A1, “SODIUM THIOSULFATE GEL FOR PREVENTING OR REDUCING HEARING LOSS” (STICHTING HET NEDERLANDS KANKER INSTITUUT-ANTONI VAN …, priority 2019, published 2022).

Tests used:
[1] = reported incidences vary widely amongst studies; cited from earlier work
[2] = tested on: cisplatin-induced hearing loss (CIHL); conditions: cited from earlier work; for patients in whom CIHL was seen: 61 patients treated with STS (intravenous), 64 with cisplatin alone, p=0.00022; for overall survival: children with disseminated disease, additional intravenous STS vs cisplatin alone, p=0.009
[3] = in vivo; cited from earlier work
[4] = guinea pigs; cited from earlier work
[5] = tested on: cisplatin-induced hearing loss (CIHL); test: Phase 1 trial of transtympanic STS gel: audiometry (pure tone averages) for efficacy against cisplatin-induced hearing loss; format: in vivo, human; conditions: for Δ PTA 0.5-1-2 kHz (posttreatment − baseline) / Δ PTA 1-2-4 kHz (posttreatment − baseline) / Δ PTA 8-10-12.5 kHz (posttreatment − baseline): STS-treated ears; for difference in ΔPTA3 in favour of the untreated ear: last non-responder
Experimental: Arm A was a single-blind, placebo controlled, proof-of-concept study. A different application method was investigated in arm B, which was a non-blinded, non-placebo controlled, proof of concept arm. The ear to be treated with the transtympanic STS gel was assigned by randomisation in both arms. The study was performed at the Netherlands Cancer Institute in Amsterdam, the Netherlands. The protocol was approved by the institutional medical research ethics committee. The study is registered with the European Clinical Trials Database (EudraCT) (EudraCT: 2012-004653-80). […] Exclusion criteria were: known symptomatic brain or leptomeningeal metastases and relevant otological history (e.g. conductive hearing loss, vertigo). All patients gave written informed consent prior to start of study procedures. The ear to be treated with the transtympanic STS gel was assigned by randomisation in both arm A and arm B. Arm A concerned a single-blind study protocol in which the contralateral ear was treated with a placebo gel. Arm B was non-blinded and the contralateral ear was left untreated. The enrolment of patients was done by a treating physician. Randomisation was done via a randomisation program at the institutional trial centre. […] In arm B only the STS gel was prepared. Syringes with study medication were warmed up to body temperature (37° C.) for 30 minutes in an incubator ([…], Switzerland) to prevent hypo- or hypercaloric symptoms during or after injections. The syringe was connected to the (Braun, […]) needle via a 10 cm infusion line (BD Becton Dickenson connecta). […] To approach the eardrum in a perpendicular orientation. In arm A, the gels were administered through a […] grommet, which was placed for venting air to prevent barotrauma and/or pain while injecting. During this procedure we noticed there was backflow of the gel via the infusion needle backward into the external ear canal. Therefore, a different protocol for the transtympanic injection was chosen in arm B for the next 6 patients: the grommet was still placed in the anterior eardrum for ventilation of the middle ear, however, the STS gel was injected via the needle directly through the posterior part of the eardrum and indeed backflow into the external ear was not seen anymore. Topical anesthesia was applied using a few small (3×3 mm) gauzes with xylocaine 10% (lidocaine 100 mg/ml, AstraZeneca, United Kingdom) applied on the eardrum before placement of the grommet and the injections. During the injections, the patient was lying in a hospital bed with the upper body positioned 30 degrees upwards. After administration of the gel the patients head was turned 45 degrees contralateral. […] The specific positioning of the patient was in our view needed to for improved and/or prolonged exposure of the STS gel to the round window of the middle ear. […] If concomitant chemotherapy or radiotherapy was to be administered, this was done as per local protocol. […] Standard audiometry including air conduction (AC) and bone conduction (BC) thresholds was performed in a sound proof booth using the Decos Audiology Workstation. […] Six evaluable patients per study arm were considered sufficient to reach proof of concept based on the intra-patient comparison and the expected audiometric difference between the STS-treated and untreated/placebo treated ears. […] To study whether there was a significant difference in CIHL over time ([…]) between the STS ears and the untreated ears, the […] with paired samples was used.

[6] = tested on: cisplatin-induced hearing loss; conditions: transtympanic STS gel (0.5 M, 0.1 ml, 24 hours prior to cisplatin); 13 patients; 3 to 10 kHz; not significant; cited from earlier work
[7] = tested on: cisplatin-induced hearing loss (CIHL); conditions: cited from earlier work

N.N.[Cl][Pt][Cl] [Cisplatin, cis-diaminedichloroplatinum(II)]
occurrence of cisplatin-induced hearing loss in cisplatin-treated patients [1]: 75-80% | patients in whom CIHL was seen [2]: 56% | overall survival [2]: 84%

O=S([O-])([O-])=S.[Na+].[Na+] [STS, sodium thiosulfate]
oral bio-availability [3]: poor | perilymph STS concentrations, transtympanic injections compared with intravenous infusion [4]: higher | Δ PTA 0.5-1-2 kHz (posttreatment − baseline) ([5]; 4 patients with ototoxicity who responded to STS-gel): −0.4 dB HL | Δ PTA 1-2-4 kHz (posttreatment − baseline) ([5]; 4 responders): −0.4 dB HL | Δ PTA 8-10-12.5 kHz (posttreatment − baseline) ([5]; 4 responders): 6.8 dB SPL | occurrence of SNHL (ΔPTA3 ≥10 dB), STS-treated versus untreated ears ([5]; 12 STS-treated ears vs 12 untreated ears, McNemar p=0.125): no statistically significant difference | Δ PTA 1-2-4 kHz (posttreatment − baseline) ([5]; all 12 patients): 2.5 dB HL | Δ PTA 8-10-12.5 kHz (posttreatment − baseline) ([5]; all 12 patients): 8.8 dB SPL | ΔPTA3 (8-10-12.5 kHz), overall ([5]; all 12 patients, STS-treated ears (untreated ears 12.7 dB)): 8.8 dB | Δ PTA 0.5-1-2 kHz (posttreatment − baseline) ([5]; all 12 patients, directly after last cisplatin cycle minus baseline): 2.1 dB HL | ΔPTA3 ([5]; four non-responders, STS-treated ears (untreated ears 15.2 dB)): 14.3 dB | mean ΔPTA3 ([5]; four responders, STS-treated ears (untreated ears 25.2 dB)): 6.8 dB | difference in ΔPTA3 between STS-treated ears and untreated ears ([5]; four responders, in favour of STS-treated ear, range 11.7-33.3 dB): 18.4 dB | difference in ΔPTA3 in favour of the untreated ear ([5]; at follow-up audiometry): 2.3 dB SPL | difference in ΔPTA3 in favour of the untreated ear ([5]; directly after treatment): 10.0 dB SPL | difference in ΔPTA3 between ears ([5]; three of the four non-responders): < 10 dB SPL | averaged hearing loss less in STS-treated ears than in untreated ears [6]: 1.3 dB | patients in whom CIHL was seen [2]: 29% | overall survival [2]: 45% | adverse events likely attributed to intravenous STS administration ([7]; children): tumour progression and grade 3 infection, neutropenia, electrolyte disorders and anaemia | relative risk of CIHL ([7]; intravenous STS, 95% confidence interval 0.33-0.81): 52% | reduction of the incidence of CIHL versus cisplatin alone ([7]; intravenous STS, 109 children, p=0.002): 48%
